What was measured:
[1] = biological target: T1, PFL (Pseudomonas fluorescens, UniProt Q3KJ04); assay: CFG printed glycan microarray v5.[…], fluorescence; format: binding; settings: 10 μg/ml Alexa488-PFL; glycan immobilised on array
T1 construct: gene Pfl01_0508; full length, 132 residues, two homologous domains; pET101/D-TOPO with native stop codon, E. coli BL21 Star (DE3); Alexa Fluor 488 labelled for the array
T1 sequence (Q3KJ04 2-133): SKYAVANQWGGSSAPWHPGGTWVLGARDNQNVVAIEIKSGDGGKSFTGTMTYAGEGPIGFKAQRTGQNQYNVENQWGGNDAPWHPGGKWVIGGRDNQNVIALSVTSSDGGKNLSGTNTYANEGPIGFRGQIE

[2] = biological target: T1, PFL; assay: CFG printed glycan microarray v5.[…], fluorescence; format: binding; settings: 10 μg/ml Alexa488-PFL; glycan immobilised on array; remark: listed apart in the source

M6 glycan [compound 216] was tested, and the RFU [1] was 43471 RFU.
For M7 glycan [compound 211], the “binding potency relative to M6 glycan (216)” value [2] was ~ 53%.
In the case of M8 glycan [compound 212], the RFU [1] was 40759 RFU.
Substance “fucosylated counterpart of pentasaccharide core of N-glycan (50) [compound 485]” has an RFU [1] of 746 RFU.

From paper PMC3447791, “High Mannose-Binding Antiviral Lectin PFL from Pseudomonas fluorescens Pf0-1 Promotes Cell Death of Gastric Cancer Cell MKN28 via Interaction with α2-Integrin” (PLoS ONE, 2012)
